pEC50, pIC50: −log10 of the molar value.
Key:
TRPM5 [1] = biological target: T1, TRPM5 (Homo sapiens, UniProt Q9NZQ8); assay: Combined patch-clamp and fura-2 recordings of TRPM5 currents after Ca2+ release, [Ca2+]i not buffered; assay type: cell-based
T1 construct: Human TRPM5 cDNA containing the complete ORF of the long splice version; expressed in transfected cells
T1 sequence (Q9NZQ8 1-1165): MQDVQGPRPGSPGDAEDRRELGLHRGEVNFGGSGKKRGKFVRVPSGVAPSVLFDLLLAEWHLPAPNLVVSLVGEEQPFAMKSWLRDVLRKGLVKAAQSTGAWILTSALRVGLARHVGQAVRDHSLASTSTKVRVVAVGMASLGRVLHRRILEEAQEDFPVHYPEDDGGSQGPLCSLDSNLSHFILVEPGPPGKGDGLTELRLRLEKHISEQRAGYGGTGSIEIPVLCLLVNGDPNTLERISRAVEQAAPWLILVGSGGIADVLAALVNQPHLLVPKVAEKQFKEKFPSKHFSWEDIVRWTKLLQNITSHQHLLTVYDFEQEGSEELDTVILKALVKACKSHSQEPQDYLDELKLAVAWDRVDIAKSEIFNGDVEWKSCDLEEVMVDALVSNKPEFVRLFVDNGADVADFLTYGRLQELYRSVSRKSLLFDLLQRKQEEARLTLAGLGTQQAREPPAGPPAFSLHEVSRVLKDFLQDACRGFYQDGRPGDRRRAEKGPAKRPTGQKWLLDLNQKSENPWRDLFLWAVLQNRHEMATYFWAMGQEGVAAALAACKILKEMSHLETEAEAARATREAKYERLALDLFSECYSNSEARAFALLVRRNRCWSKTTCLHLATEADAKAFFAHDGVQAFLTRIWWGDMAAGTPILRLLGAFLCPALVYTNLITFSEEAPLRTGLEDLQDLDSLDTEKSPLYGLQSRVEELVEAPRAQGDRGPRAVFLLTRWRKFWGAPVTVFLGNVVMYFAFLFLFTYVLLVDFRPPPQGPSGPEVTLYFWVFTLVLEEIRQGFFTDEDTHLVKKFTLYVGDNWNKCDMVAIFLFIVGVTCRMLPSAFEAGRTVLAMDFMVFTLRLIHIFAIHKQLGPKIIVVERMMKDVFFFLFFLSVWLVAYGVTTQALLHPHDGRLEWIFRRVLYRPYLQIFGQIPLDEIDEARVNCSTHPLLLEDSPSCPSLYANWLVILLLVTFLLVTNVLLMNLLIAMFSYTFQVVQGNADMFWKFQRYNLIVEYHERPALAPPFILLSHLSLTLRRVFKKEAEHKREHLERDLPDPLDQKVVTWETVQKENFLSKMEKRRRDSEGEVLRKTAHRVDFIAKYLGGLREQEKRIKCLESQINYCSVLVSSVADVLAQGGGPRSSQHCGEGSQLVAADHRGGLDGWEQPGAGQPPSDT
Text: (§1) Cells grown on glass coverslips were transferred to the recording chamber and kept in a standard modified Ringer's solution of the following composition (in mM): NaCl 140, KCl 2.8, CaC12 1, MgC12 2, glucose 10, Hepes.NaOH 10, pH 7.2, with osmolarity typically ranging from 298-308 mOsm. Intracellular pipette-filling solutions contained (in MM): K-glutamate 120, NaCl 8, MgC12 1, K-BAPTA 10, HEPES.CsOH, pH 7.2 adjusted with KOH. In order to adjust free [Ca^2+]i, to the desired concentration appropriate amounts of CaC12 were added as calculated with WebMaxC v2.1 (available through Stanford University). In the case of fura-2 measurements intracellular K-BAPTA was replaced by 200 μM fura-2. Fura-2 is a calcium indicator (Handbook of Fluorescent Probes and Research Chemicals, 9th ed. Molecular Probes). […]
(§2) The cytosolic calcium concentration was monitored at a rate of 5 Hz with a photomultiplier-based system using a monochromatic light source tuned to excite fura-2 fluorescence at 360 and 390 nm for 20 ms each (TILL Photonics, Munich, Germany). Emission was detected at 450-550 run with a photomultiplier, whose analog signals were sampled and processed by X-Chart software (HEKA, Lambrecht, Germany). Fluorescence ratios were translated into free intracellular calcium concentration based on calibration parameters derived from patch-clamp experiments with calibrated calcium concentrations. […]

HEK-293 cells = assay: fura-2 measurement of [Ca2+]i in TRPM5-expressing HEK-293 cells; assay type: cell-based, human; details: thrombin 20 U/ml, n=5
Text: as §1, §2

TRPM5 [2] = biological target: T1, TRPM5; assay: Whole-cell patch-clamp of TRPM5 currents in HEK-293 cells stably expressing TRPM5, [Ca2+]i buffered in pipette; assay type: cell-based; details: for Hill coefficient, inhibition of TRPM5: fit to inhibitory phase
Text: Cells grown on glass coverslips were transferred to the recording chamber and kept in a standard modified Ringer's solution of the following composition (in mM): NaCl 140, KCl 2.8, CaC12 1, MgC12 2, glucose 10, Hepes.NaOH 10, pH 7.2, with osmolarity typically ranging from 298-308 mOsm. Intracellular pipette-filling solutions contained (in MM): K-glutamate 120, NaCl 8, MgC12 1, K-BAPTA 10, HEPES.CsOH, pH 7.2 adjusted with KOH. In order to adjust free [Ca^2+]i, to the desired concentration appropriate amounts of CaC12 were added as calculated with WebMaxC v2.1 (available through Stanford University). In the case of fura-2 measurements intracellular K-BAPTA was replaced by 200 μM fura-2. Fura-2 is a calcium indicator (Handbook of Fluorescent Probes and Research Chemicals, 9th ed. Molecular Probes). Solution changes were performed by pressure ejection from a wide-tipped pipette. Thrombin (NaCl-based buffer) was purchased from Sigma.
Cells expressing TRPM5 were prepared as in Example 1. The cells were perfused with an internal solution in which the free Ca^2+ concentration was buffered to 500 nM with an appropriate mixture of BAPTA and CaC12. […] The activation kinetics of TRPM5 currents under these experimental conditions is characterized by a half-time to peak of −3 s, with the peak current itself at −10 s. The current inactivates similarly rapidly to basal levels with a half-time of —13 s.
(§3) Patch-clamp experiments were performed in the tight-seal whole-cell configuration at 21-25° C. High-resolution current recordings were acquired by a computer-based patch-clamp amplifier system (EPC-9, HEKA, Lambrecht, Germany). Patch pipettes had resistances between 2-4 MS2 after filling with the standard intracellular solution. Immediately following establishment of the whole-cell configuration, voltage ramps of 50 ms duration spanning the voltage range of −100 to +100 mV were delivered from a holding potential of 0 mV at a rate of 0.5 Hz over a period of 300 to 600 seconds. All voltages were corrected for a liquid junction potential of 10 mV between external and internal solutions when using glutamate as intracellular anion. Currents were filtered at 2.9 kHz and digitized at […] intervals. Capacitive currents and series resistance were determined and corrected before each voltage ramp using the automatic capacitance compensation of the EPC-9. The low-resolution temporal development of membrane currents was assessed by extracting the current amplitude at −80 and +80 mV from individual ramp current records. Where applicable, statistical errors of averaged data are given as means±S.E.M. with n determinations and statistical significance was assessed by Student's t-test. For single channel measurements inside-out patches were pulled into a modified standard external solution that contained no Ca^2+ and had 1 mM Na-EDTA. To record single channels a ramp protocol of 4.5 s from −100 mV to +100 mV and digitized at […] was given with no wait time in between ramps. Ramps that had no channel activity during Ca^2+ application were used for leak correction and subtracted form all ramps acquired. Data collection was at 2.9 kHz filter setting and digitally filtered at 50 Hz for display purposes.

TRPM4 = TRPM4 (Homo sapiens, UniProt Q8TD43); assay: Dose-dependence of TRPM4 currents evoked by intracellular [Ca2+]i; assay type: cell-based
Sequence of TRPM4 (Q8TD43 whole entry, the tested form may be a part): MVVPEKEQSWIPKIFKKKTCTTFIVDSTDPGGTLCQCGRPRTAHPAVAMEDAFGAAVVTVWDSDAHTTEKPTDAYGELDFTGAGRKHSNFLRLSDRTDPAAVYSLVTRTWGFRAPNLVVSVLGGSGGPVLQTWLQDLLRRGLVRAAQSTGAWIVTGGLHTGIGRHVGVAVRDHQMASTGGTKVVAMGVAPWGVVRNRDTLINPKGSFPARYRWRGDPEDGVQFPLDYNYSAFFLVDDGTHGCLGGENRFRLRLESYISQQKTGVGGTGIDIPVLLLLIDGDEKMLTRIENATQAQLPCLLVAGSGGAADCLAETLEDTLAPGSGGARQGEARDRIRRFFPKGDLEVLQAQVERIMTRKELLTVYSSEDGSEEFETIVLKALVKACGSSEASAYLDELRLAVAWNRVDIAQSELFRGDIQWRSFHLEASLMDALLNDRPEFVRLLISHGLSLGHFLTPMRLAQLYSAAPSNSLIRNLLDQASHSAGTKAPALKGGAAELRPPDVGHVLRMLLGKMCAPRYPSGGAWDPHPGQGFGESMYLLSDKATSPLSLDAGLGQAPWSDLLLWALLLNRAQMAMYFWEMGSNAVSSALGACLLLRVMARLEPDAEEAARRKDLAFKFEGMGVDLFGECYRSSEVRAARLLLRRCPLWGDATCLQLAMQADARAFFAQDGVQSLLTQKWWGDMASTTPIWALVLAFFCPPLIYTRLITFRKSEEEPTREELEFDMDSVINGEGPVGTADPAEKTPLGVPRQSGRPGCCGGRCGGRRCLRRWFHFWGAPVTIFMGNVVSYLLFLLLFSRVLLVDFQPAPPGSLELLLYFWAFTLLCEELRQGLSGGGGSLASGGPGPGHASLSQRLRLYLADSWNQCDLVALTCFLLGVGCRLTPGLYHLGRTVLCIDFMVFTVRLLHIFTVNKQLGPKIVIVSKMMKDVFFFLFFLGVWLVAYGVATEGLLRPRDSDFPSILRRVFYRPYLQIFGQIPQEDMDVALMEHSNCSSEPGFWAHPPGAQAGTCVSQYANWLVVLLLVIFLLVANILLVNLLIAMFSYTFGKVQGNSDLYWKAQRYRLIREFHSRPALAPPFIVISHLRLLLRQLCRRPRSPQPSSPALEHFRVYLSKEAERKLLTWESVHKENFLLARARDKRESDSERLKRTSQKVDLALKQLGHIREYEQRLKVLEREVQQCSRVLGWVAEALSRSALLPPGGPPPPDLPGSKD

[3] = test system: endogenous TRPM5-like currents in INS-1 cells; assay: Whole-cell currents in INS-1 beta cells perfused with defined [Ca2+]i; assay type: cell-based, rat
Protocol: as §3
TRPM5 is found in another beta cell line, INS-1 (FIG. 5B). The INS-1 line was used to assess the electrophysiological features of TRPM5 in a native cellular context. Since the pancreatic beta-cell line INS-1 expressed TRPM5, the native TRPM5 currents in these cells was studied using the same experimental protocols that activated TRPM5 in the heterologous HEK-293 expression system (Examples 1-3). FIG. 5C illustrates that perfusing INS-1 cells with an intracellular solution that contained elevated levels of Ca^2+ (800 nM) induced a transient current, whose current-voltage relationship (FIG. 5D) was outwardly rectifying and closely resembled the current-voltage characteristics obtained for TRPM5 in the transfected HEK-293 cells. […]

TRPM5 single channels = biological target: T2, TRPM5 single channels (Homo sapiens, UniProt Q9NZQ8); assay: Single-channel recordings in inside-out patches from HEK-293 cells stably expressing TRPM5; assay type: biochemical; details: cytosolic side exposed to 300 nM Ca2+, n=5
T2 construct: Human TRPM5 cDNA containing the complete ORF of the long splice version; expressed in transfected cells
T2 sequence (Q9NZQ8 1-1165): T1 sequence (Q9NZQ8 1-1165)
Text: FIG. 4A depicts studies in which the inside-out patches were pulled from HEK-293 cells stably expressing TRPM5 channels. To record single channels a ramp protocol of 4.5 s from −100 mV to +100 mV was given with no wait time in between ramps. Ramps that had no channel activity during Ca^2+ application ere used for leak correction. Data were acquired at 2.9 kHz filter setting and digitally filtered at 50 Hz for display purposes. […] The last panel is an example 1 s after stop of application and removal of Ca^2+. This patch had at least 7 channels. […] Records are representative of all 5 patches recorded this way. […]
Patch-clamp experiments were performed in the tight-seal whole-cell configuration at 21-25° C. […] Capacitive currents and series resistance were determined and corrected before each voltage ramp using the automatic capacitance compensation of the EPC-9. The low-resolution temporal development of membrane currents was assessed by extracting the current amplitude at −80 and +80 mV from individual ramp current records. Where applicable, statistical errors of averaged data are given as means±S.E.M. with n determinations and statistical significance was assessed by Student's t-test. […]
The single-channel properties of TRPM5 were analyzed in cell-free excised membrane patches in the inside-out configuration of the patch-clamp technique. […]

Thrombin
TRPM5 currents at +80 and −80 mV on thrombin stimulation (TRPM5 [1]; thrombin 20 U/ml, n=5): transient increase in inward and outward currents
[Ca2+]i signal on thrombin stimulation (HEK-293 cells): large Ca^2+-release transient

O=C([O-])CN(CC(=O)[O-])c1ccccc1OCCOc1ccccc1N(CC(=O)[O-])CC(=O)[O-].[K+].[K+].[K+].[K+] [BAPTA]
effect on TRPM5 activation by thrombin (TRPM5 [1]; 10 mM BAPTA in the pipette solution, n=6, data not shown): consistently suppressed TRPM5 activation

[Ca+2] [[Ca^2+]i]
average peak amplitude of TRPM5 inward currents (TRPM5 [2]; at −80 mV, [Ca2+]i of 1 μM, n=5): −440 pA
Hill coefficient, inhibition of TRPM5 (TRPM5 [2]): −6
Hill coefficient, inhibition of TRPM5 (TRPM5 [2]; listed as [Ca2+]i): 6
Hill coefficient, activation of TRPM5 (TRPM5 [2]; fit to rising phase): 4
pEC50 (TRPM5 [2]; whole-cell, HEK-293 expressing TRPM5, n=5-20, read-out: EC50 for activation of TRPM5 currents (rising phase)): 6.07
pIC50 (TRPM5 [2]; whole-cell, HEK-293 expressing TRPM5, n=5-20, read-out: IC50 of the inhibitory phase of TRPM5 currents): 5.96
pEC50 (TRPM4; data re-calculated by WebmaxC): 6.05
Hill coefficient, TRPM4 currents (TRPM4; data re-calculated by WebmaxC): 3.6
inhibition of TRPM4 activity at high [Ca2+]i (TRPM4; levels up to 1.3 μM, Ref. 9 and data not shown): without signs of inhibition
activation of endogenous TRPM5-like currents ([3]; 100 nM [Ca2+]i, n=3): neither 100 nM (n=3) nor 300 nM (n=3) activated any currents
activation of endogenous TRPM5-like currents ([3]; 300 nM [Ca2+]i, n=3): neither 100 nM (n=3) nor 300 nM (n=3) activated any currents
activation of endogenous TRPM5-like currents ([3]; 500 nM [Ca2+]i, n=3): a distinctive, transient TRPM5-like current was activated
activation of endogenous TRPM5-like currents ([3]; 800 nM [Ca2+]i, n=8): a distinctive, transient TRPM5-like current was activated
TRPM5 single-channel activity in inside-out patch (TRPM5 single channels): activity of multiple channels was observed

— patent US7723075B2, “Methods of screening for TRPM5 modulators” (The Queens's Medical Center, priority 2003, dated 2010)
